Measurements published in the NIST ThermoML archive (doi:10.1021/acs.jced.8b00222).
Numbers after ± are expanded uncertainties.

How the values were obtained:
[1] = refractive index (Na D-line) (dimensionless); conditions: 293.15 K; 101.33 kPa; Liquid; Standard Abbe refractometry
[2] = 293.15 K; 101.33 kPa; Liquid; Pycnometric method

## COC1CCCC1 [methoxycyclopentane]
[1]
  refractive index: 1.4187 ± 0.0008
[2]
  mass density: 860.13 ± 2.1 kg/m3

## O=Cc1ccco1 [2-furaldehyde]
[1]
  refractive index: 1.5259 ± 0.0008
[2]
  mass density: 1159.16 ± 2.2 kg/m3

## CC(=O)O [acetic acid]
[1]
  refractive index: 1.3717 ± 0.0008
[2]
  mass density: 1048.93 ± 2.2 kg/m3

## O [water]
[1]
  refractive index: 1.3334 ± 0.0005
